Assay results published in patent US9512152B2, “Phospholipid compound containing unsaturated fatty acid derivative having cyclopropane ring” (NISHIZAKI BIOINFORMATION RESEARCH INSTITUTE, priority 2013, dated 2016).

Key:
Type in all cases: biochemical
Human PTP1B = target: T1, Human PTP1B (Homo sapiens, UniProt P18031); assay: Assay of PTP1B activity under cell-free conditions (p-NPP substrate); settings: FIG. 2
T1 construct: made in house; host or cells: E. coli BL21(DE3)
T1 sequence (P18031 1-435): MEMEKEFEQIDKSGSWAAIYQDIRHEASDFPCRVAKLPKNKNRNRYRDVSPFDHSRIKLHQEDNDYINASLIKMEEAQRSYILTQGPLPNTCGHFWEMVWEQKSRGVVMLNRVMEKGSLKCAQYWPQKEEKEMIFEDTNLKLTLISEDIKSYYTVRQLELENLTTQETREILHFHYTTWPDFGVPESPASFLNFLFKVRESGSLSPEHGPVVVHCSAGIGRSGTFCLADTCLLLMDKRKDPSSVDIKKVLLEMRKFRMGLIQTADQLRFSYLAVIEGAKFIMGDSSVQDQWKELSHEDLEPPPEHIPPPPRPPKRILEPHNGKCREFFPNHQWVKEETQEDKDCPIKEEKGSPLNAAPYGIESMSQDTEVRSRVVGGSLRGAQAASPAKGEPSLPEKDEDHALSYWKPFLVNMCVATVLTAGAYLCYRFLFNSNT
Description: Protein tyrosine phosphatase was measured under cell-free conditions by a method partially modified from the methods described in previous reports (Baba Y, et al. J Am Chem Soc 2003; 125; 9740-9749; Rice R L, et al. Biochemistry 1997; 36: 15965-15974). Human PTP1B was cloned to a pGEX-6P-3 vector having a GST tag at the NH2 terminal, and expressed in competent E. coli BL21(DE3) suitable for transformation and protein expression. GST fusion PTP1B was affinity-purified using glutathione sepharose 4B (GE Healthcare Bio-Science KK, Tokyo, Japan). It was reacted with p-nitrophenylphosphate (p-NPP) (Sigma, St. Louis, Mo., USA) as a substrate and PTP1B activity was measured. The enzyme was pre-incubated in a reaction medium [50 mM HEPES, 1 mM EDTA, 50 mM NaCl, 1 mM dithiothreitol, pH 7.2] at 37° C. for 30 min in the presence or absence of diDCP-LA-PE and with or without addition of Na3VO4 which is a PTP1B inhibitor. Then, p-NPP (10 mM) was added to the reaction medium, and the mixture was incubated for 60 min. The reaction was discontinued by the addition of 0.1N NaOH. Dephosphorylated p-NPP, i.e., p-NP, was quantified at an absorbance of 405 nm by using SpectraMax PLUS384 (Molecular Devices, Sunnyvale, Calif., USA).

PKC isozymes = assay: Cell-free PKC assay; settings: 100 μM, FIG. 5
Description: (§1) PKC activity in a cell-free system was quantified by the method described in a previous report (Kanno T et al. J Lipid Res 2006; 47: 1146-1156). In short, synthesized PKC substrate peptide (10 μM) was reacted with various PKC isozymes in a medium containing 20 mM Tris-HCl (pH 7.5), 5 mM magnesium acetate, 10 μM ATP, and DCP-LA-phospholipid in the absence of phosphatidylserine and diacylglycerol at 30° C. for 5 min. A Ca^2+-free medium was used for novel PKC such as PKC-δ, -ε and the like, and a 100 μM CaCl2-containing medium was used for other PKC isozymes. They were loaded on reversed-phase HPLC (LC-10ATvp, Shimadzu Co., Kyoto, Japan), and the peaks of substrate peptide and new resultant products were measured at an absorbance of 214 nm. The areas of non-phosphorylated PKC substrate peptide and phosphorylated PKC substrate peptide were measured (total area corresponds to the concentration of PKC substrate peptide used in this Example), and the amount of the phosphorylated substrate peptide was calculated. The amount of the phosphorylated substrate peptide (pmol/1 min) per 1 min was used as an index of the PKC activity.

PKCζ = target: T2, PKCζ (Homo sapiens, UniProt Q05513); assay: Cell-free PKC assay; settings: 100 μM, FIG. 6
T2 sequence (Q05513 1-592): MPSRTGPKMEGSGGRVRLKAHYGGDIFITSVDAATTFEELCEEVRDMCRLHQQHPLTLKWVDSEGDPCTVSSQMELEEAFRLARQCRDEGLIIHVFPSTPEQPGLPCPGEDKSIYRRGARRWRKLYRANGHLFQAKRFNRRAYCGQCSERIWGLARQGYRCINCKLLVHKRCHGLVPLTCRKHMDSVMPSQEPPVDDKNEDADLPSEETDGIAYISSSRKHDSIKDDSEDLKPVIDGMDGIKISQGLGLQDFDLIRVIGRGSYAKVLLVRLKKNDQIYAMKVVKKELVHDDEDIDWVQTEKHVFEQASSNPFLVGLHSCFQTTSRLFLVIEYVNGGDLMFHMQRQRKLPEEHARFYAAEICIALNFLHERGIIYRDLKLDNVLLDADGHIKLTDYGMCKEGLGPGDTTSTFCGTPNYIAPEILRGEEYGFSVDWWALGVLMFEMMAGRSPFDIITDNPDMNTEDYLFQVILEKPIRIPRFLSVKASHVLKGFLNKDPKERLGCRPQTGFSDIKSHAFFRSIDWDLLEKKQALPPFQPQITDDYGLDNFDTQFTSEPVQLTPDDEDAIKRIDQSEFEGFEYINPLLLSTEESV
Description: as §1

PKCι = target: T3, PKCι (Homo sapiens, UniProt P41743); assay: Cell-free PKC assay; settings: 100 μM, FIG. 6
T3 sequence (P41743 1-596): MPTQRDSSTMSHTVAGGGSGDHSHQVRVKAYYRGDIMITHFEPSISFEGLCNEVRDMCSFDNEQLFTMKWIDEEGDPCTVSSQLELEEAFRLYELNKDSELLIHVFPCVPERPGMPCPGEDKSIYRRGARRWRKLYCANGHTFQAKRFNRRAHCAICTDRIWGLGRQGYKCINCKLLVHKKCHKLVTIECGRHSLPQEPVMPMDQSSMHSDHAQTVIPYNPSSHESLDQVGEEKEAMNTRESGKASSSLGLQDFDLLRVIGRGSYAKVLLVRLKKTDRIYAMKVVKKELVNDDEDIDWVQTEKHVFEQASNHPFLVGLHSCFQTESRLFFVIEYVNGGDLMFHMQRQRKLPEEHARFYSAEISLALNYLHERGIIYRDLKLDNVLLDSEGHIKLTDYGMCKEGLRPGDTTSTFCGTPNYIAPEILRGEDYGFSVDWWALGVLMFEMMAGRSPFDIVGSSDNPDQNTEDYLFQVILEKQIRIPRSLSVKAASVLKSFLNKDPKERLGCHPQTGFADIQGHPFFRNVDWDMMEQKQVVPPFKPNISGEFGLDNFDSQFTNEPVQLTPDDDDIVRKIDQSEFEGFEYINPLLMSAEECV
Description: as §1

CCCCCC1CC1CC1CC1CCCCCCCC(=O)OC[C@H](COP(=O)(O)OCCN)OC(=O)CCCCCCCC1CC1CC1CC1CCCCC (stereo partly shown) [diDCP-LA-PE, 1,2-o-bis-[8-{2-(2-pentyl-cyclopropylmethyl)-cyclopropyl}-octanoyl]-sn-glycero-3-phosphatidylethanolamine]
PTP1B inhibition (phosphatase activity, dephosphorylated p-NPP) (Human PTP1B): inhibits PTP1B in a concentration-dependent manner
PKC activation, all PKC isozymes (PKC isozymes): activates all PKC isozymes
PKCζ activation, specificity (PKCζ): specific activating agent of PKCι and PKCζ
PKCι activation, specificity (PKCι): specific activating agent of PKCι and PKCζ
